What was measured:
[1] = Enzyme hydrolysis in plasma/buffer pH 7.4 mixture (80%-20%); format: in vitro ADME; conditions: for half-life: 80% plasma/buffer
Description: The half-times of enzyme hydrolysis of the novel bispilocarpates according to the invention and of known pilocarpic acid diesters were determined in a plasma/buffer pH 7.4-mixture (80%-20%) at 37°C. The degradation constants (k) for the compounds tested and determined from the plot showing the logarithm of remaining diester as a function of time and the half-lives T½ are shown in the Table II below. From the results it may be seen that in […] the stable test compound degrades under the influence of an enzyme (esterase) to a O,O'-dihydrogen bispilocarpate intermediate, which spontaneously degrades at pH 7.40 to pilocarpine. Consequently the effect of the bispilocarpate intermediate on the rate of formation of pilocarpine is very significant. The formation of pilocarpine was almost complete irrespective of the epimerization possibility of the intermediate. The amount of isopilocarpine formed varied from 0 to 10%, as also the pilocarpine formed epimerized, if the duration of hydrolysis was very long.

[2] = Corneal permeability in a diffusion chamber; format: in vitro ADME, rabbit; conditions: rabbit eye cornea, diffusion chamber, epithelium side to endothelium side; read-out: Permeability coefficient Papp
Source text: The corneal permeability of pilocarpine hydrochloride and its most promising prodrug derivatives as evaluated from the tests described above were studied in a diffusion chamber, wherein the migration of the compound from the delivering phase (epithelium side) thorugh the cornea to the acceptor side (endothelium side) of the diffusion chamber. In the study, rabbit eye cornea was used. From the samples taken from the acceptor side of the diffusion chamber, both the concentration of the prodrug and the liberated drug were determined in the acceptor phase with HPLC. Thus the rate of degradation of the prodrug in the cornea was determined. The permeability coefficients (Papp, cm/s) calculated from the permeability rate (μmol/min), their […] deviations (RSD) and the number of tests, are given in the Table II below.

[3] = pKa-value determination by titration in a water-ethanol mixture (50%-50%); format: physicochemical; conditions: water-ethanol 50:50; titration in water-ethanol mixture (50%-50%)
[4] = Lipophilicity: partition coefficient (octanol-buffer) and capacity factor by RP-HPLC; format: physicochemical; conditions: for chromatographic logP / Capacity factor (22°C) k': rp-hplc; for chromatographic logP: reverse phase HPLC, 22°C, read-out: Capacity factor (22°C) k' (converted)
Source text: The lipophilicity of the compounds were studied by determining the partition coefficients (P) of the compounds at a pH of 7.40. The measurements were made either in an octanol-buffer mixture by determining the concentration of the compound to be studied in the buffer phase by HPLC. The partition coefficients of the very lipophilic compounds were, however, determined by reverse phase (RP) liquid chromatography (HPLC) from the retention time (Beckmann 116 pump and 166 UV detector; Marathon autom. sample feeder). […] From the results it can be seen that the compounds of the invention are considerably more lipophilic than the pilocarpine.

[5] = Stability of the compounds: buffer hydrolysis (half-times, shelf-life); format: physicochemical
Description: The stability of the test compounds were tested with buffer hydrolyses. The ionic strength (µ) of the buffers was 0.5, the pH-values used 4.2, 6.0, 7.4 and 9.0 and the temperatures used 37°C, 50 °C, 60 °C and 70 °C.
The half-times T½ calculated on basis of the degradation constant k obtained for each studied compound (T½=0.693/k; k = 2.303 x kk, wherein kk is the angular coefficient of the plot which illustrates the logarithm of the remaining ester as a function of time) in a buffer solution of said pH, are indicated in the Table I below, which values refer to half-times at 37°C.
The storage stability of the derivatives under different storage conditions may be estimated by determining the degradation constants at different temperatures and calculating the degradation constant k at the desired temperature from the equation of the plot corresponding to the Arrhenius equation (1), wherein log k is given as a function of [1/T]. Log k = Log A -(Ea)/(2.303R)x(1)/(T) [formula]
From the degradation constant (k) obtained at the desired temperature the shelf-life-time t10% (t10% = 0.104/k) which indicates the time during which 10% of the drug has degraded may be calculated. By way of example it may be mentioned that the t10%-time of O,O'-dipropionyl (1,4-xylylene) bispilocarpate at 4 °C is almost 500 days.

[6] = plasma/buffer pH 7.4 (80%-20%), 37°C, read-out: half-times (T½) in plasma (80%), 37°C
[7] = plasma/buffer pH 7.4 (80%-20%), 37°C
[8] = buffer pH 6.00, ionic strength 0.5, 37°C, read-out: Half-times in buffers at 37°C, T½, pH 6.00 (converted)
[9] = buffer pH 9.00, ionic strength 0.5, 37°C, read-out: Half-times in buffers at 37°C, T½, pH 9.00 (converted)
[10] = pH 4.2, buffer pH 4.20, ionic strength 0.5, 37°C, read-out: Half-times in buffers at 37°C, T½, pH 4.20 (converted)
[11] = pH 7.4, buffer pH 7.40, ionic strength 0.5, 37°C, read-out: Half-times in buffers at 37°C, T½, pH 7.40 (converted)
[12] = determined from the equation log k'= 0.182 Log P - 0.4086 (RP-HPLC retention)

Compound | half-life [1, 6] [h] | Degradation coefficient (k) in plasma (80%), 37°C [1, 7] [min⁻¹] | Papp [2] [nm/s] | pKa [3] | chromatographic logP [4] | half-life [5, 8] [h] | half-life [5, 9] [h] | half-life [5, 10] [h] | half-life [5, 11] [h] | Partition coefficient log P [4, 12] | Partition coefficient log P ([4]; pH 7.4) | Capacity factor (22°C) k' [4] | half-life ([5]; buffer, pH 4.2) [h] | half-life ([5]; buffer, pH 6) [h] | half-life ([5]; buffer, pH 7.4) [h] | half-life ([5]; buffer, pH 9) [h] | half-life ([1]; pH 7.4) [h] | Degradation coefficient (k) in plasma (80%), 37°C ([1]; pH 7.4) [min⁻¹]
CC[C@H](C(=O)OCc1ccccc1)[C@H](COC(=O)c1cccc(Cl)c1)Cc1cncn1C [3-chloro-benzoyl, benzyl, reference compound] | 0.367 | 0.03132 | 72 | – | – | – | – | – | – | – | – | – | – | – | – | – | – | –
CC[C@H](C(=O)OCc1ccc(COC(=O)[C@@H](CC)[C@H](CO)Cc2cncn2C)cc1)[C@H](CO)Cc1cncn1C [Example 1, O,O'-Dihydrogen (1,4-xylylene) bispilocarpate] | – | – | – | 6.25 | -0.0915 | 2.28 | 0.0317 | 37.6 | 0.3 | – | – | – | – | – | – | – | – | –
CC[C@H](C(=O)OCc1cccc(COC(=O)[C@@H](CC)[C@H](CO)Cc2cncn2C)c1)[C@H](CO)Cc1cncn1C [Example 2, O,O'-Dihydrogen (1,3-xylylene) bispilocarpate] | – | – | – | 6.3 | -0.0814 | 2.78 | 0.0183 | 48.8 | 0.317 | – | – | – | – | – | – | – | – | –
CC[C@H](C(=O)OCc1ccccc1COC(=O)[C@@H](CC)[C@H](CO)Cc1cncn1C)[C@H](CO)Cc1cncn1C [Example 3, O,O'-Dihydrogen (1,2-xylylene) bispilocarpate] | – | – | – | 6.3 | -0.0814 | 3.35 | 0.0233 | 20.2 | 0.417 | – | – | – | – | – | – | – | – | –
CC[C@H](C(=O)OCCCCCCCOC(=O)[C@@H](CC)[C@H](CO)Cc1cncn1C)[C@H](CO)Cc1cncn1C [Example 4, O,O'-Dihydrogen (1,7-heptylene) bispilocarpate] | – | – | – | 6.3 | 0.0518 | 29.9 | 0.3 | 81.8 | 3.35 | – | – | – | – | – | – | – | – | –
CC[C@H](C(=O)OCCCCCCOC(=O)[C@@H](CC)[C@H](CO)Cc1cncn1C)[C@H](CO)Cc1cncn1C [Example 5, O,O'-Dihydrogen (1,6-hexylene) bispilocarpate] | – | – | – | 6.3 | -0.0494 | 25.1 | 0.233 | 62.6 | 2.5 | – | – | – | – | – | – | – | – | –
CC[C@H](C(=O)OCCCCCOC(=O)[C@@H](CC)[C@H](CO)Cc1cncn1C)[C@H](CO)Cc1cncn1C [Example 6, O,O'-Dihydrogen (1,5-pentylene) bispilocarpate] | – | – | – | 6.3 | -0.123 | 24.6 | 0.233 | 73 | 2.08 | – | – | – | – | – | – | – | – | –
CC[C@H](C(=O)OCCCCOC(=O)[C@@H](CC)[C@H](CO)Cc1cncn1C)[C@H](CO)Cc1cncn1C [Example 7, O,O'-Dihydrogen (1,4-butylene) bispilocarpate] | – | – | – | 6.35 | -0.182 | 18.9 | 0.167 | 120 | 2.63 | – | – | – | – | – | – | – | – | –
CC[C@H](C(=O)OCCCOC(=O)[C@@H](CC)[C@H](CO)Cc1cncn1C)[C@H](CO)Cc1cncn1C [Example 8, O,O' -Dihydrogen (1,3-propylene) bispilocarpate] | – | – | – | 6.4 | -0.212 | 10.3 | 0.0667 | 67.3 | 1.2 | – | – | – | – | – | – | – | – | –
CC[C@H](C(=O)OCc1ccc(COC(=O)[C@@H](CC)[C@H](COC(=O)c2ccccc2)Cc2cncn2C)cc1)[C@H](COC(=O)c1ccccc1)Cc1cncn1C [Example 14, O,O'-Dibenzoyl (1,4-xylylene) bispilocarpate] | 1.57 | 0.00737 | – | 5.8 | 0.773 | – | 8 | – | – | 6.4929^2 | – | – | – | – | – | – | – | –
CC[C@H](C(=O)OCc1ccccc1)[C@H](COC(=O)CCCCC(=O)OC[C@H](Cc1cncn1C)[C@H](CC)C(=O)OCc1ccccc1)Cc1cncn1C [Example 15, O,O'-Adipoyl (dibenzyl) bispilocarpate] | – | – | – | 6 | 0.651 | – | – | – | – | – | 5.8242^2 | 4.4810 | 3140 | 1650 | 655 | 70 | 0.467 | 0.02487
CC[C@H](C(=O)OCc1ccccc1)[C@H](COC(=O)CCCC(=O)OC[C@H](Cc1cncn1C)[C@H](CC)C(=O)OCc1ccccc1)Cc1cncn1C [Example 16, O,O'-Glutaryl (dibenzyl) bispilocarpate] | – | – | – | 6 | 0.576 | 2200 | 43 | 4190 | 757 | 5.4093^2 | – | – | – | – | – | – | 0.233 | 0.05044
CC[C@H](C(=O)OCc1ccccc1)[C@H](COC(=O)CCC(=O)OC[C@H](Cc1cncn1C)[C@H](CC)C(=O)OCc1ccccc1)Cc1cncn1C [Example 17, O,O'-Succinyl (dibenzyl) bispilocarpate] | – | – | – | 6 | 0.539 | – | – | – | – | – | 5.2038^2 | 3.4557 | 4760 | 2550 | 251 | 28 | 3.13 | 0.00368
CC[C@H](C(=O)OCc1ccccc1)[C@H](COC(=O)/C=C/C(=O)OC[C@H](Cc1cncn1C)[C@H](CC)C(=O)OCc1ccccc1)Cc1cncn1C [Example 18, O,O'-Fumaroyl (dibenzyl) bispilocarpate] | – | – | – | 6.05 | 0.631 | – | – | – | – | – | 5.7137^2 | 4.2785 | 834 | 49 | 6 | 0.4 | 2.78 | 0.00415
CC[C@H](C(=O)OCc1ccccc1)[C@H](COC(=O)c1ccc(C(=O)OC[C@H](Cc2cncn2C)[C@H](CC)C(=O)OCc2ccccc2)cc1)Cc1cncn1C [Example 19, O,O'-Terephtaloyl (dibenzyl) bispilocarpate] | – | – | – | 6 | 0.865 | 913 | 38 | 1580 | 55 | 7.0000^2 | – | – | – | – | – | – | 3.58 | 0.00322
CCCCCCCC(=O)OC[C@H](Cc1cncn1C)[C@H](CC)C(=O)OCc1ccccc1 [octanoyl, benzyl, reference compound] | 0.45 | 0.02556 | – | – | – | – | – | – | – | – | – | – | – | – | – | – | – | –
CC[C@H](C(=O)OCc1ccccc1)[C@H](CO)Cc1cncn1C [pilocarpic acid benzyl ester] | – | – | – | 6.5 | -0.116 | – | – | – | – | – | – | – | – | – | – | – | – | –
